Measured values published in the NIST ThermoML archive (doi:10.1016/j.fluid.2007.10.010).
Numbers after ± are expanded uncertainties.

Experiments:
[1] = 298.15 K; 101.33 kPa; Liquid; Vibrating tube method
[2] = refractive index (Na D-line) (dimensionless); conditions: 298.15 K; 101.33 kPa; Liquid; Standard Abbe refractometry

Row | Compound | mass density [1] [kg/m3] | refractive index [2]
1 | CCCCCCCCCCCCCCCC [hexadecane] | 771.15 ± 0.3 | 1.43232 ± 0.0007
2 | CCCCCCCCn1cc[n+](C)c1.O=S(=O)([N-]S(=O)(=O)C(F)(F)F)C(F)(F)F | 1320.76 ± 12 | 1.43331 ± 0.0012
3 | CCCCCC [hexane] | 655.06 ± 0.31 | 1.37287 ± 0.0007
4 | CCCCCCC [heptane] | 679.466 ± 0.26 | 1.38517 ± 0.00068
5 | c1ccsc1 [thiophene] | 1058.5 ± 0.23 | 1.52581 ± 0.00068
